# Measured values reported in US9023789B2, “Amylin analogs and pharmaceutical compositions thereof” (Novo Nordisk A/S, priority 2012, dated 2015).
# pEC50, pIC50: −log10 of the molar value. Like-named read-outs stand apart in the source and are kept apart here. Numbered stars: 1 amine (or outer) side, 2 acyl side, 3 side chain; on linkers, the order of the positions; unused ones are H or OH. Bridge positions count the residues as written; N and C are the ends. Side chains are listed from the residue outwards. Peptide text beside a SMILES is read from it. * marks the point of attachment. C20 diacid = O=C(O)CCCCCCCCCCCCCCCCCCC(=O)*; γGlu = O=C(O)[C@H](CCC(=O)[*:2])N[*:1]
# How the values were obtained:
# [1] = target: T1, human amylin receptor (membranes from Amylin 3(a)/CRE-luc cells) (Homo sapiens, UniProt O60896+P30988); experiment: ASSAY (V) binding to the human amylin receptor (SPA, 125I-rat amylin);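 also: competition binding of cell membranes (35 ng/µL) mixed with SPA beads in 384-well plates at 40 µL total volume, read by scintillation counting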
# T1 construct: expressed in transfected cells
# T1 sequence (P30988 25-474): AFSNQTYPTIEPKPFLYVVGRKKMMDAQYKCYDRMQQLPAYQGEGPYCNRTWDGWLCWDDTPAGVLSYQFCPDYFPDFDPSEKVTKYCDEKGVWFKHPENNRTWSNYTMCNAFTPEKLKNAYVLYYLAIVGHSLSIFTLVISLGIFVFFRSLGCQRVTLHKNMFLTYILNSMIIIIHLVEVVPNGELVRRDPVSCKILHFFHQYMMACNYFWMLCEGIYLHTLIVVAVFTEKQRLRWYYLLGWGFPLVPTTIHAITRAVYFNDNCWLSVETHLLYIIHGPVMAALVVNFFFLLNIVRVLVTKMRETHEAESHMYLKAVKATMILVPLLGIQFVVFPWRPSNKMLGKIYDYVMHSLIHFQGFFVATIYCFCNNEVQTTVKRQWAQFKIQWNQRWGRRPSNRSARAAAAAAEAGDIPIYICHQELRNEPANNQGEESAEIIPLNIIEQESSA
# T1 sequence (O60896 24-148 partner): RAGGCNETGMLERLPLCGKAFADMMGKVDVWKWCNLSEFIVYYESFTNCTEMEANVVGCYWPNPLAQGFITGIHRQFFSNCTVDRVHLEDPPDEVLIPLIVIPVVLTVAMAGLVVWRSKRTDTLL
# rat calcitonin receptor = target: T2, rat calcitonin receptor (Rattus norvegicus, UniProt P32214); experiment: ASSAY (VIII) binding to the rat calcitonin receptor; details: Table 7, read-out: rCTR bind IC50
# T2 construct: expressed in transfected cells; host or cells: BHK tk'ts 13 (transient, FuGENE 6), membranes
# T2 sequence (P32214 25-479 isoform P32214-2 limits assumed): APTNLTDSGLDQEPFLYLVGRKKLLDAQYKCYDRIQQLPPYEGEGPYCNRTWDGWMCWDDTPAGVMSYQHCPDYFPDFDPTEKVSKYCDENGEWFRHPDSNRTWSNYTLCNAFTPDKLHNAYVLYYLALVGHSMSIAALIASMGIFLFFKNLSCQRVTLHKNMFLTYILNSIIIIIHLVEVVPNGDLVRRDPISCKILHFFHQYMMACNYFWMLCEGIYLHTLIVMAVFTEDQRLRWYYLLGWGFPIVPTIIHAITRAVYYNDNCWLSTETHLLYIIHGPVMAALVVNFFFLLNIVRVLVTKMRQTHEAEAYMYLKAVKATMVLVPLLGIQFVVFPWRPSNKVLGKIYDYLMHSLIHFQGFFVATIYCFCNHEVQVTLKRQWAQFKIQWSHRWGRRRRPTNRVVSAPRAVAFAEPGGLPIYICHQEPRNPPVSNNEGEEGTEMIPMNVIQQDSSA
# Procedure, shortened: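 Transfect BHK tk′ts 13 cells transiently with rat calcitonin receptor, culture in DMEM containing 10% FBS, collect cells about 48 hours later, then prepare membranes.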
# [2] = target: T3, rat amylin receptor (rat calcitonin receptor + rat RAMP 3) (Rattus norvegicus, UniProt P32214+Q9JJ73); experiment: ASSAY (VI) binding to the rat amylin receptor; details: for pIC50: binding to rat amylin receptor, read-out: rAmylin-R bind IC50
# T3 construct: expressed in transfected cells; host or cells: BHK tk'ts 13 (transient, FuGENE 6), membranes
# T3 sequence (P32214 25-479 isoform P32214-2 limits assumed): T2 sequence (P32214 25-479 isoform P32214-2 limits assumed)
# T3 sequence (Q9JJ73 23-147 partner): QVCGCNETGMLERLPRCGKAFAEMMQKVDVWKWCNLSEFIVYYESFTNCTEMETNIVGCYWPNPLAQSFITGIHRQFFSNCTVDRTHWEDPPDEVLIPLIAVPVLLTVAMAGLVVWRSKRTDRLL
# Procedure, shortened: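 This assay measured binding to the rat amylin receptor. BHK tk′ts 13 cells were transiently transfected with the rat calcitonin receptor using FuGENE® 6 (Roche), following the manufacturer's recommendations. About 48 hours after transfection, the cells were harvested and membranes were prepared from them for the binding determination.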
# [3] = ASSAY (IV) determination of solubility; format: physicochemical
# Procedure, shortened: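 Polypeptide stock in water ([…]) was mixed 1:1 with 100 mM buffers: glycylglycine at pH 3.0, 4.0, 5.0 and bistrispropane at pH 6.0, 6.5, 7.0, 7.5, 8.0. After 18 hours at room temperature, samples were centrifuged and polypeptide concentration measured by UPLC.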
# [4] = target: T4, human amylin 3(a) receptor (human calcitonin receptor + RAMP-3) in BHK570 cells (Homo sapiens, UniProt O60896+P30988); experiment: ASSAY (II)a functional assay, human amylin receptor (CRE luciferase); format: cell-based
# T4 construct: expressed in transfected cells
# Procedure, shortened: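 BHK CRE-luc cells, calcitonin (a) receptor ± RAMP-3 (amylin 3(a)); overnight seeding, 37° C/5% CO2. 3 h ligand exposure, DMEM/10% FBS/10 mM Hepes pH 7.4. LucLite 30 min RT; luminescence (SPC).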
# [5] = Table 5, selectivity, hCTR bind IC50 / hAmylin-R bind IC50
# [6] = Table 5a, selectivity, hCTR bind IC50 / hAmylin-R bind IC50
# [7] = Table 5b, selectivity, hCTR bind IC50 / hAmylin-R bind IC50
# [8] = Table 5c, selectivity, hCTR bind IC50 / hAmylin-R bind IC50
# [9] = Table 7, human binding selectivity, included for comparison
# [10] = Table 7a (preferred compounds), human binding selectivity, included for comparison
# [11] = ratio of human calcitonin receptor binding IC50 to human amylin receptor binding IC50
# [12] = Table 7, rat binding selectivity, rCTR IC50 / rAmylin-R IC50
# [13] = Table 7a (preferred compounds), rat binding selectivity, rCTR IC50 / rAmylin-R IC50
# [14] = ratio of rCTR bind IC50 to rAmylin-R bind IC50
# [15] = bistrispropane buffer, pH 6.5, read-out: Solubility pH 6.5 Concentration
# [16] = bistrispropane buffer, pH 7.5, read-out: Solubility pH 7.5 Concentration
# [17] = bistrispropane buffer, pH 6.0, read-out: Solubility pH 6.0 Concentration
# [18] = bistrispropane buffer, pH 7.0, read-out: Solubility pH 7.0 Concentration
# [19] = bistrispropane buffer, pH 8.0, read-out: Solubility pH 8.0 Concentration
# [20] = glycylglycine buffer, pH 3.0, read-out: Solubility pH 3.0 Concentration
# [21] = glycylglycine buffer, pH 4.0, read-out: Solubility pH 4.0 Concentration
# [22] = glycylglycine buffer, pH 5.0, read-out: Solubility pH 5.0 Concentration
# [23] = hCTR funct. EC50 divided by hAmylin-R funct. EC50
# [24] = hCTR funct. EC50 over hAmylin-R funct. EC50
# [25] = human functional selectivity: hCTR funct. EC50 / hAmylin-R funct. EC50
"Ratio hCT/hAmylin binding [1, 5]","Ratio hCT/hAmylin binding [1, 6]","Ratio hCT/hAmylin binding [1, 9]","Ratio hCT/hAmylin binding [1, 10]","Ratio hCT/hAmylin binding [1, 11]",pIC50 (rat calcitonin receptor),pIC50 ([2]; Table 7),"Ratio rCT/rAmylin binding [2, 12]","Ratio rCT/rAmylin binding [2, 13]","Ratio rCT/rAmylin binding [2, 14]","solubility at 18 h [3, 15]","solubility at 18 h [3, 16]","solubility at 18 h [3, 17]","solubility at 18 h [3, 18]","solubility at 18 h [3, 19]","solubility at 18 h [3, 20]","solubility at 18 h [3, 21]","solubility at 18 h [3, 22]","Ratio hCT/hAmylin funct. [4, 23]","Ratio hCT/hAmylin funct. [4, 25]",SMILES,also measured
47.5,47.5,47.5,47.5,47.5,6.97,9.53,365.7,365.7,365.7,190 µM,≥ 200 µM,≥ 200 µM,≥ 200 µM,≥ 200 µM,≥ 200 µM,≥ 200 µM,≥ 200 µM,16.4,16.4,CC[C@H](C)[C@H](NC(=O)[C@H](C)NC(=O)CNC(=O)[C@H](Cc1ccccc1)NC(=O)[C@H](CC(N)=O)NC(=O)[C@@H]1CCCN1C(=O)[C@H](CO)NC(=O)[C@H](CO)NC(=O)[C@H](Cc1c[nH]cn1)NC(=O)[C@H](CCCNC(=N)N)NC(=O)[C@H](CC(C)C)NC(=O)[C@H](Cc1ccccc1)NC(=O)[C@H](CC(=O)O)NC(=O)[C@H](C)NC(=O)[C@H](CC(C)C)NC(=O)[C@H](CCCNC(=N)N)NC(=O)[C@H](CCC(N)=O)NC(=O)[C@@H](NC(=O)[C@H](C)NC(=O)[C@@H]1CSSC[C@H](NC(=O)[C@@H](N)CCCCNC(=O)CC[C@H](NC(=O)CC[C@H](NC(=O)CCCCCCCCCCCCCCCCCCC(=O)O)C(=O)O)C(=O)O)C(=O)N[C@@H](CC(N)=O)C(=O)N[C@@H]([C@@H](C)O)C(=O)N[C@@H](C)C(=O)N[C@@H]([C@@H](C)O)C(=O)N1)[C@@H](C)O)C(=O)N1CCC[C@H]1C(=O)N[C@@H](CO)C(=O)N[C@@H](CO)C(=O)N[C@H](C(=O)N[C@@H](CC(N)=O)C(=O)N[C@H](C(=O)NCC(=O)N[C@@H](CO)C(=O)N[C@@H](CC(=O)O)C(=O)N[C@H](C(=O)N[C@@H](Cc1ccc(O)cc1)C(N)=O)[C@@H](C)O)C(C)C)[C@@H](C)O [Example 2] (H-K([γGlu-γGlu-C20 diacid])CNTATCATQRLADFLRHSSPNFGAIPSSTNVGSDTY-NH2; disulfide 2-7; N-terminus assumed),"Ratio hCT/hAmylin binding [1, 7]: 47.5; Ratio hCT/hAmylin binding [1, 8]: 47.5; Ratio hCT/hAmylin funct. [4, 24]: 16.4"
11.1,11.1,11.1,11.1,11.1,7.48,9.02,34.6,34.6,34.6,≥ 200 µM,≥ 200 µM,≥ 200 µM,≥ 200 µM,≥ 200 µM,≥ 200 µM,≥ 200 µM,≥ 200 µM,6.3,6.3,CC[C@H](C)[C@H](NC(=O)[C@H](C)NC(=O)CNC(=O)[C@H](Cc1ccccc1)NC(=O)[C@H](CC(N)=O)NC(=O)[C@@H]1CCCN1C(=O)[C@H](CO)NC(=O)[C@H](CO)NC(=O)[C@H](Cc1c[nH]cn1)NC(=O)[C@H](CCCNC(=N)N)NC(=O)[C@H](CC(C)C)NC(=O)[C@H](Cc1ccccc1)NC(=O)[C@H](CCC(=O)O)NC(=O)[C@H](C)NC(=O)[C@H](CC(C)C)NC(=O)[C@H](CCCNC(=N)N)NC(=O)[C@H](CCC(N)=O)NC(=O)[C@@H](NC(=O)[C@H](C)NC(=O)[C@@H]1CSSC[C@H](NC(=O)[C@@H](N)CCCCNC(=O)CC[C@H](NC(=O)CCCCCCCCCCCCCCCCCCC(=O)O)C(=O)O)C(=O)N[C@@H](CC(N)=O)C(=O)N[C@@H]([C@@H](C)O)C(=O)N[C@@H](C)C(=O)N[C@@H]([C@@H](C)O)C(=O)N1)[C@@H](C)O)C(=O)N1CCC[C@H]1C(=O)N[C@@H](CO)C(=O)N[C@@H](CO)C(=O)N[C@H](C(=O)N[C@@H](CC(N)=O)C(=O)N[C@H](C(=O)NCC(=O)N[C@@H](Cc1c[nH]cn1)C(=O)N[C@@H](CCC(=O)O)C(=O)N[C@H](C(=O)N[C@@H](Cc1ccc(O)cc1)C(N)=O)[C@@H](C)O)C(C)C)[C@@H](C)O [Example 107] (H-K([γGlu-C20 diacid])CNTATCATQRLAEFLRHSSPNFGAIPSSTNVGHETY-NH2; disulfide 2-7 (inferred)),"pIC50 ([1]; Table 4, read-out: hAmylin-R bind IC50): 9.41; Ratio hCT/hAmylin funct. [4, 24]: 6.3; pEC50 ([4]; human amylin receptor functional potency, assay (II), read-out: hAmylin-R funct. EC50): 9.39"
24.8,24.8,24.8,24.8,24.8,8.04,9.90,72.4,72.4,72.4,≥ 200 µM,≥ 200 µM,≥ 200 µM,≥ 200 µM,180 µM,≥ 200 µM,≥ 200 µM,≥ 200 µM,4.9,4.9,CC[C@H](C)[C@H](NC(=O)[C@H](C)NC(=O)CNC(=O)[C@H](Cc1ccccc1)NC(=O)[C@H](CC(N)=O)NC(=O)[C@@H]1CCCN1C(=O)[C@H](CO)NC(=O)[C@H](CO)NC(=O)[C@H](Cc1c[nH]cn1)NC(=O)[C@H](CCCNC(=N)N)NC(=O)[C@H](CC(C)C)NC(=O)[C@H](Cc1ccccc1)NC(=O)[C@H](Cc1c[nH]cn1)NC(=O)[C@H](C)NC(=O)[C@H](CC(C)C)NC(=O)[C@H](CCCNC(=N)N)NC(=O)[C@H](CCC(N)=O)NC(=O)[C@@H](NC(=O)[C@H](C)NC(=O)[C@@H]1CSSC[C@H](NC(=O)[C@@H](N)CCCCNC(=O)CC[C@H](NC(=O)CCCCCCCCCCCCCCCCCCC(=O)O)C(=O)O)C(=O)N[C@@H](CC(N)=O)C(=O)N[C@@H]([C@@H](C)O)C(=O)N[C@@H](C)C(=O)N[C@@H]([C@@H](C)O)C(=O)N1)[C@@H](C)O)C(=O)N1CCC[C@H]1C(=O)N[C@@H](CO)C(=O)N[C@@H](CO)C(=O)N[C@H](C(=O)N1CCC[C@H]1C(=O)N[C@H](C(=O)NCC(=O)N1CCC[C@H]1C(=O)N[C@@H](CC(N)=O)C(=O)N[C@H](C(=O)N[C@@H](Cc1ccc(O)cc1)C(N)=O)[C@@H](C)O)C(C)C)[C@@H](C)O [Example 116] (H-K([γGlu-C20 diacid])CNTATCATQRLAHFLRHSSPNFGAIPSSTPVGPNTY-NH2; disulfide 2-7),"Ratio hCT/hAmylin binding [1, 7]: 24.8; Ratio hCT/hAmylin binding [1, 8]: 24.8; Ratio hCT/hAmylin funct. ([4]; hCTR funct. EC50 / hAmylin-R funct. EC50): 4.9"
